≈ marks a conversion by molar mass, not a printed value.

Common to all, as to assay: ≥ marks a high value that may be exact or a test limit, other limits are often not marked, values filed in µg/mL are converted to µM
Assay [1] deals with Staphylococcus aureus LAC.
Assay [2] concerns Escherichia coli ATCC 25922.
Assay [3] has as its system Pseudomonas aeruginosa 5167.
Assay [4] deals with Pseudomonas aeruginosa 1570.
A further assay deals with Escherichia coli W160-37.
For assay [5], the system named is Staphylococcus aureus 8530.
The subject of the next assay is Bacillus subtilis.
The subject of assay [6] is Pseudomonas putida NCIM 2102.
The test system of assay [7] is Candida krusei CCARM 14017.
Assay [8] deals with Trichoderma virens KCTC 16924.
Assay [9] relates to Fusarium verticillioides KCTC 6149.
In assay [10] the test system is Candida parapsilosis CCARM 14016.
The test system of assay [11] is Candida albicans CCARM 14001.
Assay [12] has as its system Aspergillus flavus KCTC 6905.
Assay [13] relates to Candida albicans CCARM 14004.
In assay [14] the test system is Trichophyton rubrum KCTC 6345.
Assay [15] has as its system Trichoderma viride KCTC 16992.
Assay [16] deals with Fusarium graminearum KCTC 16656.
Assay [17] relates to Colletotrichum gloeosporioides KCTC 6169.
The test system of assay [18] is Fusarium solani KCTC 6326.
Assay [19] concerns Candida albicans KCTC 7270.
Assay [20] relates to Candida albicans CCARM 14007.
For assay [21], the system named is Candida albicans CCARM 14020.
Assay [22] relates to Fusarium oxysporum KCTC 16909.
Assay [23] has as its system Staphylococcus aureus CCARM 3090.
Assay [24] has as its system Pseudomonas aeruginosa CCARM 2109.
For assay [25], the system named is Staphylococcus epidermidis KCTC 1917.
The test system of assay [26] is Bacillus subtilis KCTC 3068.
For assay [27], the system named is Pseudomonas aeruginosa KCTC 1637.
The test system of assay [28] is Staphylococcus aureus CCARM 3095.
Assay [29] has as its system Staphylococcus aureus CCARM 3089.
The test system of assay [30] is Enterococcus faecium ATCC 51559.
For assay [31], the system named is Pseudomonas aeruginosa CCARM 2095.
For assay [32], the system named is Salmonella typhimurium KCTC 1926.
Assay [33] concerns Listeria monocytogenes KCTC 3710.
Assay [34] deals with Trichosporon beigelii KCTC 7707.
Assay [35] has as its system Bacillus subtilis KCTC 1998.
The test system of assay [36] is Pseudomonas aeruginosa 4891.
In assay [37] the test system is Escherichia coli CCARM 1238.
The subject of assay [38] is Staphylococcus aureus ATCC 25923.
In assay [39] the test system is Pseudomonas aeruginosa ATCC 27853.
Assay [40] deals with Staphylococcus aureus CCARM 3518.
Assay [41] deals with Pseudomonas aeruginosa 4007.
The subject of assay [42] is Escherichia coli CCARM 1229.

In the case of `C[C@H](N)C(=O)N[C@@H](C)C(=O)N[C@@H](C)C(=O)N[C@@H](C)C(=O)N[C@@H](CCCN=C(N)N)C(=O)N[C@@H](CCCN=C(N)N)C(=O)N[C@@H](CCCN=C(N)N)C(=O)N[C@@H](CCCN=C(N)N)C(=O)O` [AAAARRRR], the MIC – broadly, the smallest concentration in the dilution series that meets the test's criterion for growth inhibition – in assay [1] was at least 138 µM; in assay [2], over 138 µM.

Consider `CC(C)C[C@H](NC(=O)[C@H](CC(C)C)NC(=O)[C@H](CCCCN)NC(=O)[C@H](CCCCN)NC(=O)[C@H](CC(C)C)NC(=O)[C@H](C)NC(=O)[C@H](CCCCN)NC(=O)[C@H](CC(C)C)NC(=O)[C@@H](N)Cc1ccccc1)C(N)=O` [FLKALKKLL], for which the MIC was at least 119 µM in [3] and 10.5 µM (≈ 11.3 µg/mL) in [4].

With `CC[C@H](C)[C@H](NC(=O)[C@H](CC(C)C)NC(=O)[C@H](CCCCN)NC(=O)[C@H](CCCCN)NC(=O)[C@H](CC(C)C)NC(=O)CN)C(=O)N[C@@H](CO)C(=O)N[C@@H](Cc1c[nH]c2ccccc12)C(=O)N[C@H](C(=O)N[C@@H](CCCCN)C(=O)N[C@@H](CCCN=C(N)N)C(=O)N[C@@H](C)C(=O)N[C@@H](C)C(=O)N[C@@H](CCC(N)=O)C(=O)N[C@@H](CCC(N)=O)C(=O)NCC(N)=O)[C@@H](C)CC` [GLKKLISWIKRAAQQG], the MIC with Escherichia coli W160-37 stood at 6.81 µM (≈ 12.2 µg/mL); in assay [5] it was 3.93 µM (≈ 7.07 µg/mL); in the assay on Bacillus subtilis, 1.57 µM (≈ 2.83 µg/mL); in [6], 30.5 µM (≈ 54.7 µg/mL).

In the case of `NCCCC[C@H](NC(=O)[C@H](CCCCN)NC(=O)[C@H](Cc1cnc[nH]1)NC(=O)[C@H](CCCCN)NC(=O)[C@H](CCCCN)NC(=O)[C@H](Cc1cnc[nH]1)NC(=O)[C@H](CCCCN)NC(=O)[C@H](CCCCN)NC(=O)[C@H](Cc1cnc[nH]1)NC(=O)[C@H](CCCCN)NC(=O)[C@H](CCCCN)NC(=O)[C@H](Cc1cnc[nH]1)NC(=O)[C@H](CCCCN)NC(=O)[C@H](CCCCN)NC(=O)[C@H](Cc1cnc[nH]1)NC(=O)[C@H](CCCCN)NC(=O)[C@H](CCCCN)NC(=O)[C@@H](N)Cc1cnc[nH]1)C(N)=O` [HKKHKKHKKHKKHKKHKK], the MIC in assay [7] stood at 4 µM (≈ 9.51 µg/mL); in assay [8], 8 µM (≈ 19 µg/mL); in [9] it was 2 µM (≈ 4.76 µg/mL); in assay [10] it was 16 µM (≈ 38 µg/mL); in assay [11], 16 µM (≈ 38 µg/mL); in assay [12], 4 µM (≈ 9.51 µg/mL). In addition, the MIC in assay [13] was found to be 16 µM (≈ 38 µg/mL); in assay [14], 8 µM (≈ 19 µg/mL); in assay [15] it was 2 µM (≈ 4.76 µg/mL); in [16], 8 µM (≈ 19 µg/mL); in assay [17] it was 1 µM (≈ 2.38 µg/mL); in assay [18], 2 µM (≈ 4.76 µg/mL). Also, the MIC came out at 16 µM (≈ 38 µg/mL) in assay [19], 16 µM (≈ 38 µg/mL) in [20], 16 µM (≈ 38 µg/mL) in assay [21] and 2 µM (≈ 4.76 µg/mL) in [22].

Consider `CC[C@H](C)[C@H](NC(=O)[C@H](Cc1ccccc1)NC(=O)[C@H](CCCN=C(N)N)NC(=O)[C@@H](N)CCCCN)C(=O)N[C@@H](CCCCN)C(=O)N[C@@H](Cc1c[nH]c2ccccc12)C(=O)N[C@@H](Cc1ccc(O)cc1)C(=O)N[C@@H](CC(N)=O)C(=O)N[C@@H](C)C(=O)N[C@@H](Cc1c[nH]c2ccccc12)C(=O)N[C@@H](CC(N)=O)C(=O)N[C@@H](CCC(=O)O)C(=O)N[C@@H](CCCCN)C(=O)N[C@@H](CCCN=C(N)N)C(=O)N[C@@H](CCCN=C(N)N)C(=O)N[C@H](C(=O)N[C@@H](Cc1ccc(O)cc1)C(N)=O)C(C)C` [KRFIKWYNAWNEKRRVY], for which the MIC in assay [23] amounted to 8 µM (≈ 18.9 µg/mL); in assay [24], 16 µM (≈ 37.7 µg/mL); in [25] it was 8 µM (≈ 18.9 µg/mL); in [26], 8 µM (≈ 18.9 µg/mL); in assay [27], 16 µM (≈ 37.7 µg/mL); in [28], 8 µM (≈ 18.9 µg/mL). Further, the MIC in [29] is 8 µM (≈ 18.9 µg/mL); in assay [30] it was 8 µM (≈ 18.9 µg/mL); in assay [31], 4 µM (≈ 9.43 µg/mL); in [32], 4 µM (≈ 9.43 µg/mL).

With `CC[C@H](C)[C@H](NC(=O)CNC(=O)[C@H](CCC(N)=O)NC(=O)[C@H](Cc1ccccc1)NC(=O)[C@@H](NC(=O)[C@H](CCCCN)NC(=O)[C@H](CCCCN)NC(=O)[C@H](CC(C)C)NC(=O)[C@H](C)NC(=O)[C@H](CC(N)=O)NC(=O)[C@H](CC(C)C)NC(=O)[C@@H](N)Cc1c[nH]c2ccccc12)C(C)C)C(=O)N[C@@H](Cc1cnc[nH]1)C(=O)N[C@@H](CCC(=O)O)C(=O)N[C@@H](C)C(=O)N[C@H](C(=O)N[C@@H](CCCCN)C(=O)N[C@@H](CC(C)C)C(=O)N[C@H](C(=O)N[C@@H](Cc1c[nH]c2ccccc12)C(=O)N[C@@H](CC(N)=O)C(=O)N[C@@H](Cc1c[nH]c2ccccc12)C(=O)N[C@H](C(=O)N[C@@H](CCC(N)=O)C(N)=O)C(C)C)[C@@H](C)CC)[C@@H](C)CC` [WLNALKKVFQGIHEAIKLIWNWVQ], the MIC was at least 32 µM in assay [33]; at least 32 µM in assay [23]; at least 32 µM in [34]; at least 32 µM in assay [35]; at least 64 µM in [36]; at least 32 µM in assay [37]. Besides, the MIC in [38] was 32 µM (≈ 93.9 µg/mL); in assay [39] it was 16 µM (≈ 47 µg/mL); in assay [2], 16 µM (≈ 47 µg/mL); in [40] it was at least 32 µM; in assay [41], at least 64 µM; in assay [19] it was at least 32 µM. Moreover, the MIC is 16 µM (≈ 47 µg/mL) in assay [32] and at least 32 µM in assay [42].

Source of the values: DBAASP.
